Data reported in PubChem BioAssay (NCI).
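Briefly, cells in 96-well plates were exposed to five compound concentrations for 48 h, and endpoints were estimated by linear interpolation. TGI denotes the concentration required for complete inhibition of growth.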

Assays:
Test in all cases: NCI tumour cell line growth inhibition, 48 h
KM12 colon = tested on: KM12 colon
SF-268 CNS = tested on: SF-268 CNS
IGROV1 ovarian = tested on: IGROV1 ovarian
NCI/ADR-RES ovarian = tested on: NCI/ADR-RES ovarian
OVCAR-8 ovarian = tested on: OVCAR-8 ovarian
SW-620 colon = tested on: SW-620 colon
NCI-H226 lung = tested on: NCI-H226 lung
MDA-MB-435 = tested on: MDA-MB-435
DU-145 prostate = tested on: DU-145 prostate
SR leukemia = tested on: SR leukemia
786-0 renal = tested on: 786-0 renal
A498 renal = tested on: A498 renal
SK-MEL-2 melanoma = tested on: SK-MEL-2 melanoma
K-562 leukemia = tested on: K-562 leukemia
T-47D breast = tested on: T-47D breast
HL-60(TB) leukemia = tested on: HL-60(TB) leukemia
HCT-116 colon = tested on: HCT-116 colon
HCC-2998 colon = tested on: HCC-2998 colon
SNB-19 CNS = tested on: SNB-19 CNS
MCF7 breast = tested on: MCF7 breast
BT-549 breast = tested on: BT-549 breast
SNB-75 CNS = tested on: SNB-75 CNS
U251 CNS = tested on: U251 CNS
MDA-N = tested on: MDA-N
SN12C renal = tested on: SN12C renal
UACC-62 melanoma = tested on: UACC-62 melanoma
COLO 205 colon = tested on: COLO 205 colon
SF-539 CNS = tested on: SF-539 CNS
M14 melanoma = tested on: M14 melanoma
UO-31 renal = tested on: UO-31 renal
OVCAR-5 ovarian = tested on: OVCAR-5 ovarian
SF-295 CNS = tested on: SF-295 CNS
RPMI-8226 leukemia = tested on: RPMI-8226 leukemia
NCI-H522 lung = tested on: NCI-H522 lung
NCI-H460 lung = tested on: NCI-H460 lung
RXF 393 renal = tested on: RXF 393 renal
LOX IMVI melanoma = tested on: LOX IMVI melanoma
CCRF-CEM leukemia = tested on: CCRF-CEM leukemia
HOP-62 NSCLC = tested on: HOP-62 NSCLC
SK-OV-3 ovarian = tested on: SK-OV-3 ovarian
HT29 colon = tested on: HT29 colon
SK-MEL-5 melanoma = tested on: SK-MEL-5 melanoma
NCI-H23 lung = tested on: NCI-H23 lung
ACHN renal = tested on: ACHN renal
HS 578T breast = tested on: HS 578T breast
MOLT-4 leukemia = tested on: MOLT-4 leukemia
TK-10 renal = tested on: TK-10 renal
CAKI-1 renal = tested on: CAKI-1 renal
OVCAR-3 ovarian = tested on: OVCAR-3 ovarian
EKVX NSCLC = tested on: EKVX NSCLC
SK-MEL-28 melanoma = tested on: SK-MEL-28 melanoma
MALME-3M melanoma = tested on: MALME-3M melanoma
PC-3 prostate = tested on: PC-3 prostate
HOP-92 NSCLC = tested on: HOP-92 NSCLC
HCT-15 colon = tested on: HCT-15 colon
A549 NSCLC = tested on: A549 NSCLC
UACC-257 melanoma = tested on: UACC-257 melanoma
MDA-MB-231 breast = tested on: MDA-MB-231 breast
OVCAR-4 ovarian = tested on: OVCAR-4 ovarian

COC(=O)NC(Nc1ccc(Cl)cc1Cl)(C(F)(F)F)C(F)(F)F
TGI (KM12 colon): > 100 µM
TGI (SF-268 CNS): > 100 µM
TGI (IGROV1 ovarian): > 100 µM
TGI (NCI/ADR-RES ovarian): > 100 µM
TGI (OVCAR-8 ovarian): > 100 µM
TGI (SW-620 colon): > 100 µM
TGI (NCI-H226 lung): > 100 µM
TGI (MDA-MB-435): > 100 µM
TGI (DU-145 prostate): > 100 µM
TGI (SR leukemia): > 100 µM
TGI (786-0 renal): > 100 µM
TGI (A498 renal): > 100 µM
TGI (SK-MEL-2 melanoma): > 100 µM
TGI (K-562 leukemia): > 100 µM
TGI (T-47D breast): > 100 µM
TGI (HL-60(TB) leukemia): > 100 µM
TGI (HCT-116 colon): > 100 µM
TGI (HCC-2998 colon): > 100 µM
TGI (SNB-19 CNS): > 100 µM
TGI (MCF7 breast): > 100 µM
TGI (BT-549 breast): > 100 µM
TGI (SNB-75 CNS): > 100 µM
TGI (U251 CNS): > 100 µM
TGI (MDA-N): > 100 µM
TGI (SN12C renal): > 100 µM
TGI (UACC-62 melanoma): > 100 µM
TGI (COLO 205 colon): > 100 µM
TGI (SF-539 CNS): > 100 µM
TGI (M14 melanoma): > 100 µM
TGI (UO-31 renal): 94.7 µM
TGI (OVCAR-5 ovarian): > 100 µM
TGI (SF-295 CNS): > 100 µM
TGI (RPMI-8226 leukemia): > 100 µM
TGI (NCI-H522 lung): > 100 µM
TGI (NCI-H460 lung): > 100 µM
TGI (RXF 393 renal): > 100 µM
TGI (LOX IMVI melanoma): > 100 µM
TGI (CCRF-CEM leukemia): > 100 µM
TGI (HOP-62 NSCLC): > 100 µM
TGI (SK-OV-3 ovarian): > 100 µM
TGI (HT29 colon): > 100 µM
TGI (SK-MEL-5 melanoma): > 100 µM
TGI (NCI-H23 lung): > 100 µM
TGI (ACHN renal): > 100 µM
TGI (HS 578T breast): > 100 µM
TGI (MOLT-4 leukemia): > 100 µM
TGI (TK-10 renal): > 100 µM
TGI (CAKI-1 renal): > 100 µM
TGI (OVCAR-3 ovarian): > 100 µM
TGI (EKVX NSCLC): > 100 µM
TGI (SK-MEL-28 melanoma): > 100 µM
TGI (MALME-3M melanoma): > 100 µM
TGI (PC-3 prostate): > 100 µM
TGI (HOP-92 NSCLC): > 100 µM
TGI (HCT-15 colon): > 100 µM
TGI (A549 NSCLC): > 100 µM
TGI (UACC-257 melanoma): > 100 µM
TGI (MDA-MB-231 breast): > 100 µM

C[C@H](CCC(=O)NN)[C@H]1CC[C@H]2[C@@H]3CC[C@@H]4C[C@H](O)CC[C@]4(C)[C@H]3CC[C@]12C
TGI (KM12 colon): > 100 µM
TGI (SF-268 CNS): > 100 µM
TGI (IGROV1 ovarian): > 100 µM
TGI (NCI/ADR-RES ovarian): > 100 µM
TGI (OVCAR-8 ovarian): > 100 µM
TGI (SW-620 colon): > 100 µM
TGI (NCI-H226 lung): > 100 µM
TGI (MDA-MB-435): > 100 µM
TGI (DU-145 prostate): > 88.8 µM
TGI (SR leukemia): 62.2 µM
TGI (786-0 renal): > 100 µM
TGI (A498 renal): > 100 µM
TGI (SK-MEL-2 melanoma): > 100 µM
TGI (K-562 leukemia): 41.1 µM
TGI (T-47D breast): > 100 µM
TGI (HL-60(TB) leukemia): 37.6 µM
TGI (HCT-116 colon): > 100 µM
TGI (HCC-2998 colon): > 90.6 µM
TGI (SNB-19 CNS): > 100 µM
TGI (MCF7 breast): 97.1 µM
TGI (BT-549 breast): > 100 µM
TGI (U251 CNS): > 100 µM
TGI (MDA-N): > 100 µM
TGI (SN12C renal): > 100 µM
TGI (UACC-62 melanoma): > 100 µM
TGI (COLO 205 colon): > 96 µM
TGI (SF-539 CNS): > 100 µM
TGI (M14 melanoma): 72.4 µM
TGI (UO-31 renal): > 100 µM
TGI (OVCAR-5 ovarian): > 100 µM
TGI (SF-295 CNS): > 100 µM
TGI (RPMI-8226 leukemia): 59.9 µM
TGI (NCI-H522 lung): > 70.1 µM
TGI (NCI-H460 lung): > 100 µM
TGI (RXF 393 renal): 67.2 µM
TGI (LOX IMVI melanoma): > 100 µM
TGI (CCRF-CEM leukemia): > 72.1 µM
TGI (HOP-62 NSCLC): > 100 µM
TGI (SK-OV-3 ovarian): > 100 µM
TGI (HT29 colon): > 100 µM
TGI (SK-MEL-5 melanoma): 56.4 µM
TGI (OVCAR-4 ovarian): > 100 µM
TGI (NCI-H23 lung): > 100 µM
TGI (ACHN renal): > 100 µM
TGI (HS 578T breast): > 100 µM
TGI (MOLT-4 leukemia): > 52.7 µM
TGI (TK-10 renal): > 93.8 µM
TGI (CAKI-1 renal): > 100 µM
TGI (OVCAR-3 ovarian): > 100 µM
TGI (EKVX NSCLC): > 100 µM
TGI (SK-MEL-28 melanoma): > 100 µM
TGI (MALME-3M melanoma): > 100 µM
TGI (PC-3 prostate): > 100 µM
TGI (HOP-92 NSCLC): > 100 µM
TGI (HCT-15 colon): > 100 µM
TGI (A549 NSCLC): > 100 µM
TGI (UACC-257 melanoma): > 100 µM
TGI (MDA-MB-231 breast): > 100 µM

Cc1sccc1C(=S)Nc1ccc(Cl)c(/C=N/OC(C)(C)C)c1
TGI (KM12 colon): 28.8 µM
TGI (SF-268 CNS): 43.9 µM
TGI (IGROV1 ovarian): 29.4 µM
TGI (NCI/ADR-RES ovarian): 45.1 µM
TGI (OVCAR-8 ovarian): 34.1 µM
TGI (SW-620 colon): > 100 µM
TGI (NCI-H226 lung): 29.3 µM
TGI (MDA-MB-435): 50.9 µM
TGI (DU-145 prostate): 29 µM
TGI (SR leukemia): 54.7 µM
TGI (786-0 renal): 49.4 µM
TGI (A498 renal): 46.8 µM
TGI (SK-MEL-2 melanoma): 28.8 µM
TGI (T-47D breast): 22.8 µM
TGI (HL-60(TB) leukemia): 38.6 µM
TGI (HCT-116 colon): > 100 µM
TGI (HCC-2998 colon): 30 µM
TGI (MCF7 breast): 26.7 µM
TGI (BT-549 breast): 35.2 µM
TGI (SNB-75 CNS): > 100 µM
TGI (U251 CNS): 62.1 µM
TGI (MDA-N): 26.9 µM
TGI (SN12C renal): 25.6 µM
TGI (UACC-62 melanoma): 34.2 µM
TGI (COLO 205 colon): 27.3 µM
TGI (SF-539 CNS): > 100 µM
TGI (M14 melanoma): 33.9 µM
TGI (UO-31 renal): 25 µM
TGI (OVCAR-5 ovarian): 34.7 µM
TGI (SF-295 CNS): 37.3 µM
TGI (RPMI-8226 leukemia): 27 µM
TGI (NCI-H522 lung): 26.5 µM
TGI (RXF 393 renal): 39 µM
TGI (LOX IMVI melanoma): 73.9 µM
TGI (CCRF-CEM leukemia): > 100 µM
TGI (HOP-62 NSCLC): 30.6 µM
TGI (SK-OV-3 ovarian): 79.3 µM
TGI (HT29 colon): 27.6 µM
TGI (SK-MEL-5 melanoma): 25.9 µM
TGI (OVCAR-4 ovarian): 32 µM
TGI (NCI-H23 lung): 34.5 µM
TGI (HS 578T breast): 62.3 µM
TGI (MOLT-4 leukemia): 30.7 µM
TGI (TK-10 renal): 36.9 µM
TGI (CAKI-1 renal): 24.4 µM
TGI (OVCAR-3 ovarian): 26.8 µM
TGI (EKVX NSCLC): 42.4 µM
TGI (SK-MEL-28 melanoma): 71 µM
TGI (MALME-3M melanoma): 31.1 µM
TGI (PC-3 prostate): 32.5 µM
TGI (HOP-92 NSCLC): 35.3 µM
TGI (HCT-15 colon): 29 µM
TGI (A549 NSCLC): 63.5 µM
TGI (UACC-257 melanoma): 35.1 µM
TGI (MDA-MB-231 breast): 27 µM
